Our source for the mortality and Time values is ChEMBL document CHEMBL3046741, “Initial activity and persistence of insecticides for the control of bollworms (Lepidoptera: Noctuidae) in cotton crops” (2009).

A word on the mortality: it is the percentage killed.

Format in all cases: functional
Experiment [1] relates to Helicoverpa armigera. Nature of the experiment: Insecticidal activity against L2 larvae of Helicoverpa armigera assessed as mortality after 48 hr by leaf disk assay.
A further experiment relates to Diparopsis watersi. The experiment in a line: Insecticidal activity against L3 to L4 larvae of Diparopsis watersi assessed as mortality after 48 hr by leaf disc assay.
Experiment [2] concerns Helicoverpa armigera. The experiment in a line: Insecticidal activity against Helicoverpa armigera assessed as time above which insecticide kills less than 50% of larvae by measuring index of persistence in presence of 24 mm of simulated rain applied at three days interval.
For experiment [3], the system named is Helicoverpa armigera. Nature of the experiment: Insecticidal activity against L3 larvae of Helicoverpa armigera assessed as mortality after 48 hr by leaf disk assay.
Experiment [4] has as its system Helicoverpa armigera. Nature of the experiment: Insecticidal activity against L4 larvae of Helicoverpa armigera assessed as mortality after 48 hr by leaf disk assay.
Experiment [5] has as its system Helicoverpa armigera. The experiment in a line: Insecticidal activity against L5 larvae of Helicoverpa armigera assessed as mortality after 48 hr by leaf disk assay.
Experiment [6] concerns Helicoverpa armigera. The experiment in a line: Insecticidal activity against L1 larvae of Helicoverpa armigera assessed as mortality after 48 hr by leaf disk assay.
Experiment [7] deals with Helicoverpa armigera. Nature of the experiment: Insecticidal activity against Helicoverpa armigera assessed as time above which insecticide kills less than 50% of larvae by measuring index of persistence under in absence of rain.
The next experiment relates to Earias. Nature of the experiment: Insecticidal activity against L3 to L4 larvae of Earias spp. assessed as mortality after 48 hr by leaf disk assay.

Turning to `O=S1OCC2C(CO1)C1(Cl)C(Cl)=C(Cl)C2(Cl)C1(Cl)Cl` (configuration not stated) [ENDOSULFAN], the mortality in the experiment on Helicoverpa armigera [1] is 91.5%; in the experiment with Diparopsis watersi, 82.8%; with Helicoverpa armigera [3] it was 94.1%; in the experiment on Helicoverpa armigera [4] it was 89.5%; in the experiment with Helicoverpa armigera [5], 92.5%; with Helicoverpa armigera [6] it was 93.3%. In the experiment on Earias, the mortality was determined as 99.4%. Also, the Time with Helicoverpa armigera [2] was 5.2 days; with Helicoverpa armigera [7], 8.7 days.

Turning to `COC(=O)N(C(=O)N1CO[C@@]2(C(=O)OC)Cc3cc(Cl)ccc3C2=N1)c1ccc(OC(F)(F)F)cc1` [INDOXACARB], the mortality was determined as 78.9% with Helicoverpa armigera [1]; 77.7% in the experiment on Diparopsis watersi; 89.3% in the experiment on Helicoverpa armigera [3]; 90.9% in the experiment with Helicoverpa armigera [4]; 94.5% in the experiment with Helicoverpa armigera [5]; 86.2% in the experiment with Helicoverpa armigera [6]. In addition, in the experiment on Earias, the mortality amounted to 90.8%. Further, the Time is 3.7 days with Helicoverpa armigera [2] and 8.4 days with Helicoverpa armigera [7].

For the compound `CS/C(C)=N\OC(=O)N(C)SN(C)C(=O)O/N=C(\C)SC` [THIODICARB], the mortality in the experiment on Helicoverpa armigera [1] stood at 99.2%; in the experiment with Diparopsis watersi, 99.3%; in the experiment with Helicoverpa armigera [3], 94.1%; in the experiment on Helicoverpa armigera [4] it was 97.5%; in the experiment on Helicoverpa armigera [5], 96.5%; with Helicoverpa armigera [6] it was 98.6%. Besides, the mortality in the experiment on Earias amounted to 100%. The Time in the experiment with Helicoverpa armigera [2] is 17.2 days; in the experiment on Helicoverpa armigera [7] it was 27 days.
